Data: US20210317113A1, “1,2,3-TRIAZOLE DERIVATIVES AND USES THEREOF” (Alxerion Biotech LLC, priority 2020, published 2021)
Read-outs that look alike come from different tables or passages of the source.

Assays:
[1] = test system: Non-Small Lung Cancer Cells (NSLCs); assay: Cancer migration (wound healing) assay; assay type: cell-based; details: wound healing assay, dose-response curve, read-out: Anti-Cancer Activity (Inhibition of Cancer Cell Migration) IC50
From the text: The ability of 1,2,3-triazole derivatives according to the disclosure to inhibit cancer cell migration and proliferation in vitro can be measured, e.g., by a wound healing assay (Rodriguez et al., in Cell Migration: Developmental Methods and Protocols, Web et al., Guan ed. Humana Press 294, 23-29). This assay is based on the observation that, upon the creation of an artificial gap on a confluent cancer cell monolayer, the cells on the edge of the created gap will start migrating and proliferating until new cell-cell contacts are established (EXAMPLE 3).
Non-Small Lung Cancer Cells (NSLCs) migration rate was assessed in an in vitro wound healing assay. This assay is based on the observation that, upon the creation of an artificial gap on a confluent cell monolayer, the cells on the edge of the created gap will start migrating and proliferating until new cell-cell contacts are established.
A confluent cell layer is a prerequisite for starting this assay. Gap formation is done manually with a scrapper and cell proliferation and migration is determined recording a time-lapse video for 20 hr. with a time interval of 30 min. The microscopic pictures are manually analyzed for obtaining information about the proliferation and migration characteristics of the cultured cells and the image analysis detects the cell covered area.
NSLCs were cultured in Eagle's Minimum Essential Medium (ATCC-formulated medium, Catalog No. 30-2003) containing fetal bovine serum at 10% during several periods. Wound healing assays with supplemented medium containing 1,2,3-triazole derivatives were performed to evaluate the inhibitory effect on proliferation and migration of cancer cells.
In order to simulate as close as possible the in vivo cancer microenvironment, human plasma and calcium were added to the cell culture system to provide the hemostatic factors normally present in the cancer stroma. The previous day, cells were seeded with 10% FBS at a number that would provide 90% confluence the next day. On Day 0, a scratch (“a wound”) was performed in the middle of the well and the 10% FBS medium was replaced with 20% plasma, 20 mM calcium medium, with or without Derivative 1. 10% FBS medium was used as control in these experiments. “Wound healing” or closure of the scratch was assessed over a period of 4 days, and cell number in the wound area was quantified for each condition. Increasing amount of Derivative 1 (LTI6) was used to attain a dose-response curve.
The cell function effect of Derivative 1 was compared with Tranexamic Acid (TNA) and Caproic Acid (CA), commercially available and widely used anti-metastasis drugs.

[2] = test system: fibrinolysis mediated by tPA (plasminogen activation by tPA); assay: Fibrinolytic assay: one-step spectrophotometric clot lysis in human plasma; assay type: biochemical; details: for IC50: concentration at which 50% of total fibrinolysis mediated by tPA is inhibited, human ACD plasma, clot triggered by TF, absorbance 340 nm, read-out: Anti-fibrinolytic (SERPIN) Activity IC50
Protocol: Fibrinolytic activity in human plasma was determined by a one-step spectrophotometric method (Gidron et al. (1978) J. Clin. Pathol. 31(1):54-57) with minor modifications (see EXAMPLE 2). In this method, fibrin clot formation in anticoagulant citrate dextrose (ACD) plasma samples obtained from healthy volunteers is triggered by tissue factor (TF) and can be quantified by spectrometry as a significant increase in basal plasma absorbance at 340 nm.
As shown in FIGS. 2A-2D, in the absence of tPA, plasma absorbance remains permanently elevated.
Fibrinolytic activity in human plasmas in the presence of derivatives according to the disclosure was determined by a one-step spectrophotometric method.
Fibrin clot formation in the anticoagulant acid citrate dextrose (ACD)-treated plasma obtained from healthy volunteers is triggered by tissue factor (TF) (Thromborel S, Siemens Healthineers) and quantifies by spectrophotometry at 340 nm (using a Molecular Devices SpectraMax® M2e Multimode Microplate Reader). When recombinant human Tissue Plasminogen Activator (tPA, final concentration of 5.2 μg/ml) is simultaneously added, fibrinolysis of the clot can be determined.
Fresh blood was extracted from healthy volunteers. ACD, to reach a 10% concentration, was instantly added to the extracted blood, to prevent any unwanted coagulation. After that, blood was centrifuged for 15 min at 1,000 g. Plasma was clearly separated from red blood cells. 3 mL aliquots of aspirated plasma were immediately frozen at −20° C.
4 mL of ddH2O was added to a vial of Thromborel S and mixed thoroughly for 2 min. and left at 4° C. 500 μL TF aliquots were used for each experiment.
Representative derivatives of the present disclosure (Nos. 1, 5, and 7) were diluted in DMSO (those with Boc) or ddH2O (those with HCl) to a final concentration of 10 mM. A solution containing 1 M Tris HCl, pH 7.5 (Fisher BioReagent) (Buffer A), 0.110 g of CaCl2) in 10 mL of ddH2O (Buffer B), and tPA (Abcam, 1.3 mg/mL added into the diluted derivative solution, final concentration in serum was 5.2 μg/mL), and the derivative was prepared in a total volume of 75 μL and added to untreated, flat, clear Costar® 96-well plates in triplicate. Absorbance at 340 nm at 37° C. for 30 min was recorded every 15 sec. The plates were shaken every 3 sec in between readings. Controls for basal plasma absorbance, basal coagulation absorbance and basal fibrinolytic activity absorbance were performed in every assay.
FIG. 2A show the results a control experiment displaying the ability of TF to cause fibrin clot formation in the absence and presence of t-PA. TF was able to cause fibrin clot formation evaluated as a significant increase of the basal plasma absorbance at 340 nm.

[3] = test system: Non-Small Lung Cancer Cells (NSLCs); assay: Trypan Blue Exclusion Test of cancer cell viability; assay type: cell-based; details: defined in text as concentration of derivative causing greater than 90% of the cells to die, read-out: Anti-Cancer Activity (Trypan Blue Exclusion Assay) IC50
Protocol: The ability of 1,2,3-triazole derivatives according to the disclosure to kill cancer cells can be measured, e.g., by Trypan Blue Exclusion Assay which measured cell death by starvation due to the presence of the derivative (see EXAMPLE 4). The results obtained using this assay with some representative 1,2,3-triazole derivatives according to the disclosure are shown below in Table 4.
The effect of Derivative 1 on cancer cell viability was determined using the Trypan Blue Exclusion Test (Stober (2001) (Curr. Protoc. Immunol., May; Appendix 3:Appendix 3B. doi: 10.1002/0471142735.ima03bs21). The viability of Non-Small Lung Cancer Cells (NSLCs) was assessed over a period of 15 days after the promotion of coagulation with or without 200 μM of 1,2,3-triazole derivative 1 and with or without 2% human plasma. Fresh 2% FBS medium corresponding to each condition was added every 3 days. Cell death was analyzed using Trypan blue staining. 2% FBS medium was used as control. Some representative results are shown in FIGS. 4A-4F.

Row | SMILES | IC50 [1] | IC50 [2] | IC50 [3] | IC50 ([1]; listed as 5) | IC50 ([2]; listed as 5) | IC50 ([3]; listed as 5) | inhibition of fibrinolysis mediated by tPA (in words) ([2]; different concentrations, FIGS. 2B-2D)
1 | NCCn1cc(C(=O)O)nn1 [Derivative 30] | 520 µM | 370 µM | 710 µM | – | – | – | –
2 | O=c1[nH]c(-c2cn(C3CCNCC3)nn2)no1 [Derivative 5] | – | – | – | 90 µM | 35 µM | 150 µM | completely inhibit fibrinolysis
3 | NC1CCC(n2cc(-c3n[nH]c(=O)o3)nn2)CC1 (stereo not shown) [Derivative 17] | 650 µM | 320 µM | 1350 µM | – | – | – | –

Further lines, with some results ahead:

Row | IC50 [1] | IC50 [2] | IC50 [3] | IC50 ([1]; listed as 5) | IC50 ([2]; listed as 5) | IC50 ([3]; listed as 5) | SMILES | inhibition of fibrinolysis mediated by tPA (in words) ([2]; different concentrations, FIGS. 2B-2D)
4 | 500 µM | 350 µM | 750 µM | – | – | – | NCCCn1cc(/C(N)=N/O)nn1 [Derivative 8] | –
5 | 250 µM | 150 µM | 370 µM | – | – | – | N/C(Cc1cn(C2CCNCC2)nn1)=N/O [Derivative 10] | –
